Source: patent publication US10272078B2, “Crystalline forms of a prolyl hydroxylase inhibitor” (FibroGen, Inc., priority 2012, dated 2019)
One block for each molecule: values may come before it.

Legend:
Moisture sorption = assay type: physicochemical; details: between 5% to 95% relative humidity; lost on desorption
[1] = Solid form stability on storage (XRPD); assay type: physicochemical; details: for XRPD pattern after storage: 40° C./75% RH
Text: X-Ray Powder Diffraction patterns were collected on a Bruker AXS C2 GADDS diffractometer using Cu Kα radiation (40 kV, 40 mA), automated XYZ stage, laser video microscope for auto-sample positioning and a HiStar 2-dimensional area detector. X-ray optics consists of a single Gobel multilayer mirror coupled with a pinhole collimator of 0.3 mm. […] The beam divergence, i.e. the effective size of the X-ray beam on the sample, was approximately 4 mm. […] Typically the sample would be exposed to the X-ray beam for 120 seconds. The software used for data collection was GADDS for WNT 4.1.16 and the data were analyzed and presented using Diffrac Plus EVA v11.0.0.2 or v13.0.0.2. Alternatively, X-Ray Powder Diffraction patterns were collected on a Bruker D8 diffractometer using Cu Kα radiation (40 kV, 40 mA), θ-2θ goniometer, and divergence of V4 and receiving slits, a Ge monochromator and a Lynxeye detector. […] The software used for data collection was Diffrac Plus XRD Commander v2.5.0 and the data were analyzed and presented using Diffrac Plus EVA v11.0.0.2 or v13.0.0.2. Samples were run under ambient conditions as flat plate specimens using powder as received. The sample was gently packed into a cavity cut into polished, zero-background (510) silicon wafer. The sample was rotated in its own plane during analysis. The details of the data collection are: • Angular range: 2 to 42° 2θ • Step size: 0.05° 2θ • Collection time: 0.5 s/step • Analysis duration: 7 minutes Differential Scanning Calorimetry (DSC)

moisture sorption weight gain (Moisture sorption): approximately 0.2%
Molecule: Cc1nc(C(=O)NCC(=O)O)c(O)c2ccc(Oc3ccccc3)cc12 [Compound A Form A, [(4-hydroxy-1-methyl-7-phenoxy-isoquinoline-3-carbonyl)-amino]-acetic acid]

XRPD pattern after storage [1]: Pattern 3 was observed
Molecule: Cc1nc(C(=O)NCC(=O)O)c(O)c2ccc(Oc3ccccc3)cc12.NCCO [Compound A ethanolamine salt, [(4-hydroxy-1-methyl-7-phenoxy-isoquinoline-3-carbonyl)-amino]-acetic acid ethanolamine salt]

Molecule: [(4-hydroxy-1-methyl-7-phenoxy-isoquinoline-3-carbonyl)-amino]-acetic acid diethanolamine salt [Compound A diethanolamine salt]
XRPD pattern after storage [1]: Pattern 2 was observed

Molecule: [(4-hydroxy-1-methyl-7-phenoxy-isoquinoline-3-carbonyl)-amino]-acetic acid hemihydrate [Compound A Form B]
change of crystalline pattern on storage ([1]; 25° C./96% RH for twelve days): reverting to Form A
change of crystalline form on storage (high resolution XRPD) ([1]; ambient temperature, a full month (32 days)): almost completely reverted to anhydrous Form A
